Active and inactive are the calls of the source. How the calls were made is not given here.
What follows are compounds tested on Cytotoxicity (assay: STAT3 activators, late-stage profile, late-stage follow-up, cell-based, STAT1 reporter, BCL3 qPCR, cytotoxicity (AID 2049)). Settings: human cell reporter, STAT3/STAT1 activation, cytotoxicity panel.

Row | SMILES | CC50 [µM]
1 | COc1cc(NC(=O)c2cc(C3CC3)on2)c(OC)cc1Cl | > 55.7

What follows are compounds tested against Signal transducer and activator of transcription 1-alpha/beta (Homo sapiens) (UniProt P42224) in the same assay as above. Settings: STAT3/STAT1 activation, STAT1, Activation.
Chain of Signal transducer and activator of transcription 1-alpha/beta (Homo sapiens) (P42224 whole entry, looked up): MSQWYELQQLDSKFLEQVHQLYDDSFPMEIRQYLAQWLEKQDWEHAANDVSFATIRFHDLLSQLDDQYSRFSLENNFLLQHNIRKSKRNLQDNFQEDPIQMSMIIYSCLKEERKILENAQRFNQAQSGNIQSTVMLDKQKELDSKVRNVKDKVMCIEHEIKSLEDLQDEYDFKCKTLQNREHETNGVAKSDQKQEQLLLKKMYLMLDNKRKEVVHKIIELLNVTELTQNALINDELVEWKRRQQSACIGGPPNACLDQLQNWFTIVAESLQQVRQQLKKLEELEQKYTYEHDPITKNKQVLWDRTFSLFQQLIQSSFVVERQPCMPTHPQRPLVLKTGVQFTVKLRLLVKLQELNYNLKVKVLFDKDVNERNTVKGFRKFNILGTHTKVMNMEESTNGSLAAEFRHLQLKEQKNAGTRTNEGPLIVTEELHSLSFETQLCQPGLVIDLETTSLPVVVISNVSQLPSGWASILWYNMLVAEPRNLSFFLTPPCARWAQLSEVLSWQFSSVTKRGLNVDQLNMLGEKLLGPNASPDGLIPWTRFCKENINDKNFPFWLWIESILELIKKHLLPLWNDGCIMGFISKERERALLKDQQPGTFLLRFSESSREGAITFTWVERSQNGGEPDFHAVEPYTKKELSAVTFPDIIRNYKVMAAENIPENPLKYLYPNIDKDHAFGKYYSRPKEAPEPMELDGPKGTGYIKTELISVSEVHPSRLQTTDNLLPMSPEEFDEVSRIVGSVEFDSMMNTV

Row | SMILES | EC50
2 | COc1cc(NC(=O)c2cc(C)on2)c(OC)cc1Cl | > 55.7 µM (inactive)
3 | O=C(Nc1ccccc1Cl)c1cc(C2CC2)on1 | 3.05 µM
4 | COc1cc(NC(=O)c2cc(C3CC3)on2)cc(OC)c1 | inactive
5 | COc1cc(NC(=O)c2cc(C(C)C)on2)c(OC)cc1Cl | > 55.7 µM (inactive)
6 | COc1cccc(NC(=O)c2cc(C3CC3)on2)c1 | 5.23 µM
7 | COc1cc(NC(=O)c2cc(C3CC3)on2)c(OC)cc1Cl | > 55.7 µM (inactive)
8 | COc1ccccc1NC(=O)c1cc(-c2ccccc2)on1 | inactive
9 | Nc1c(C(=O)Nc2ccccc2)noc1C(=O)c1ccccc1 | > 55.7 µM (inactive)
10 | CN(C(=O)c1cc(C2CC2)on1)c1ccccc1 | > 55.7 µM (inactive)
11 | CCCc1cc(C(=O)Nc2cc(OC)c(Cl)cc2OC)no1 | > 55.7 µM (inactive)
12 | COc1ccc(Cl)cc1NC(=O)c1cc(C2CC2)on1 | > 55.7 µM (inactive)
13 | COc1cc(NC(=O)c2cc(C3CC3)on2)ccc1Br | inactive
14 | COc1cc(OC)c(NC(=O)c2cc(CN3CCCC3)on2)cc1Cl | > 55.7 µM (inactive)
15 | COc1ccc(OC)c(NC(=O)c2cc(CN3CCCC3)on2)c1 | > 55.7 µM (inactive)

From PubChem BioAssay AID2049 (The Scripps Research Institute Molecular Screening Center, 2009)
